Data on 13 substances can be found in patent US20140357577A1, “HIV Membrane Fusion Inhibitors” (priority 2011, published 2014).

Starred links: 1 amine or outer side, 2 acyl side, 3 side chain; linkers in the order of their positions; H or OH if unused. Non-standard residues stand in square brackets, D forms with d. *: point of attachment. cholesteryl‑oxycarbonylmethyl = CC(C)CCC[C@@H](C)[C@H]1CC[C@H]2[C@@H]3CC=C4C[C@@H](OC(=O)C*)CC[C@]4(C)[C@H]3CC[C@]12C; C(Bzl) = O=C([C@H](CSCc1ccccc1)N[*:1])[*:2]; Palmitoyl = CCCCCCCCCCCCCCCC(=O)*; Suc = O=C(CCC(=O)[*:2])[*:1]; hCys = N[C@@H](CCS)C(=O)O

Assay [1] has as its system HIV wild type virus strain IIIB. Kind of assay: Standard Anti-Viral-Experiment (AVE), HIV-1 replication assay in MT4-LTR-EGFP cells, wild type IIIB. Type of assay: cell-based. The note with it: 3 days, EGFP signal. In short, it runs like this:
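MT4-LTR-EGFP cells infected with HIV-1 IIIB, HXB2D or HXB2D gp41 mutants V38A/Q40H alongside serial 4-fold compound dilutions, 3 days at 37° C. EGFP read by laser-scanning microscopy; EC50 by linear interpolation against log concentration. Mutant results given as fold change in EC50 versus wild-type HXB2D.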

The subject of assay [2] is HIV mutant virus strain HXB2D with mutation V38A in the gp41 gene. Nature of the assay: Standard AVE, HXB2D site directed mutant V38A. Type of assay: cell-based, HIV-1. To be noted: fold change vs wild type strain HXB2D. From the text: (§1) • Standard Anti-Viral-Experiment “AVE” (wild type HIV strain IIIB+HIV strain HXB2D side directed mutants V38A and Q40H)
(§2) The HIV-1 replication assay measures virus replication (HIV wild type virus strain 111B or HXB2D, or a HIV mutant virus strain HXB2D with mutation V38A or Q40H in the gp41 gene) as an induction of enhanced green fluorescent protein (EGFP) expression. The indicator MT4-LTR-EGFP cells contain an EGFP gene under the control of the HIV-1 LTR promoter sequence. Successful HIV-1 infection results in viral Tat protein expression and subsequent induction of EGFP expression. Compounds/peptides inhibiting HIV-1 infection are expected to reduce EGFP expression as compared to the untreated HIV-infected control.
(§3) Serial 4-fold dilutions of test compounds/peptides were mixed with HIV-1 (IIIB, HXB2D, or a HXB2D mutant virus (V38A or Q40H)) and MT4-LTR-EGFP cells and incubated at 37° C. After 3 days, the wells were examined for EGFP expression using an argon laser-scanning microscope. The effective compound/peptide concentration inhibiting 50% of the virus-induced EGFP signal (EC50) was determined by linear interpolation of the EGFP signal vs. logarithm of the compound concentration; (T20, C34 and Sifuvirtide were added as reference compounds). For the V38A and Q40H mutant viruses, results were reported as a fold change in EC50, as compared with a drug-susceptible wild type strain HXB2D, which forms the backbone of the mutant virus. • Standard AVE (50% Human Serum)

The next assay deals with HIV-IIIB + 50% HS. Nature of the assay: Standard AVE (50% Human Serum), HIV-1 replication assay in MT4-LTR-EGFP cells. Type of assay: cell-based. To be noted: fold change vs EC50 in the assay without human serum. In a few lines: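 MT4-LTR-EGFP cells infected with HIV-1 alongside 4-fold serial compound dilutions in 50% human serum, 3 days at 37 °C. EGFP read by laser-scanning microscopy; EC50 by linear interpolation against log concentration, reported as fold change versus EC50 without serum.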

Assay [3] relates to HIV mutant virus strain HXB2D with mutation Q40H in the gp41 gene. Kind of assay: Standard AVE, HXB2D site directed mutant Q40H. Type of assay: cell-based, HIV-1. The note with it: fold change vs wild type strain HXB2D.
From the text: as §1, §2, §3

With “Ac-A-C(Bzl)-YAALIEALIRAAQEQQEKNEAALR-NH2 ({Ac-Ala-C(Bzl)}-YAALIEALIRAAQEQQEKNEAALR-NH2; SMILES CC[C@H](C)[C@H](NC(=O)[C@H](CC(C)C)NC(=O)[C@H](C)NC(=O)[C@H](CCC(=O)O)NC(=O)[C@@H](NC(=O)[C@H](CC(C)C)NC(=O)[C@H](C)NC(=O)[C@H](C)NC(=O)[C@H](Cc1ccc(O)cc1)NC(=O)[C@H](CSCc1ccccc1)NC(=O)[C@H](C)NC(C)=O)[C@@H](C)CC)C(=O)N[C@@H](CCCNC(=N)N)C(=O)N[C@@H](C)C(=O)N[C@@H](C)C(=O)N[C@@H](CCC(N)=O)C(=O)N[C@@H](CCC(=O)O)C(=O)N[C@@H](CCC(N)=O)C(=O)N[C@@H](CCC(N)=O)C(=O)N[C@@H](CCC(=O)O)C(=O)N[C@@H](CCCCN)C(=O)N[C@@H](CC(N)=O)C(=O)N[C@@H](CCC(=O)O)C(=O)N[C@@H](C)C(=O)N[C@@H](C)C(=O)N[C@@H](CC(C)C)C(=O)N[C@@H](CCCNC(=N)N)C(N)=O) [Peptide 4]”, a half-maximal effect in assay [1] (EC50) was put at 10 nM. Further, the “HIV-HXB2D V38A mutant (fold change in EC50)” value in assay [2] is listed as 74. Besides, the “HIV-IIIB + 50% HS (Fold change in EC50)” value in the assay with HIV-IIIB + 50% HS is on record as 2.
“Ac-ACY-Cha-ACIEALIRAAQEQQEKNEAALR-NH2 [Peptide 59]” returned an EC50 in assay [1] of 3 nM. In assay [2], the “HIV-HXB2D V38A mutant (fold change in EC50)” value turned out to be 18. The “HIV-HXB2D Q40H mutant (fold change in EC50)” value in assay [3] was found to be 44. Also, the “HIV-IIIB + 50% HS (Fold change in EC50)” value in the assay with HIV-IIIB + 50% HS is 3.
As for “Ac-ACY-Tba-ACIEALIRAAQEQQEKNEAALR-NH2 [Peptide 60]”, in assay [1], the EC50 was 5 nM. The “HIV-HXB2D V38A mutant (fold change in EC50)” value in assay [2] turned out to be 18. Besides, in the assay on HIV-IIIB + 50% HS, the “HIV-IIIB + 50% HS (Fold change in EC50)” value amounted to 3.
Substance “Ac-ACYAACIEALIRAAQEQQEKNEAALRGSGC(cholesteryl-oxycarbonylmethyl)-NH2 [81] (Ac-ACYAACIEALIRAAQEQQEKNEAALRGSGC(cholesteryl‑oxycarbonylmethyl)-NH2; cysteine pairing not given here) [Peptide 81]” returned an EC50 in assay [1] of 0.3 nM. Moreover, the “HIV-HXB2D V38A mutant (fold change in EC50)” value in assay [2] is 4. The “HIV-HXB2D Q40H mutant (fold change in EC50)” value in assay [3] is recorded as 24. In the assay on HIV-IIIB + 50% HS, the “HIV-IIIB + 50% HS (Fold change in EC50)” value amounted to 4.
Consider “Ac-ACYAACIEALIRAAQEQQEKNEAALRGSGC(cholesteryl-oxycarbonylmethyl)-NH2 [87] (Ac-ACYAACIEALIRAAQEQQEKNEAALRGSGC(cholesteryl‑oxycarbonylmethyl)-NH2; cysteine pairing not given here) [Peptide 87]”, for which, in assay [1], the EC50 worked out at 0.1 nM. Further, the “HIV-HXB2D V38A mutant (fold change in EC50)” value in assay [2] amounted to 1. Further, the “HIV-HXB2D Q40H mutant (fold change in EC50)” value in assay [3] turned out to be 5. Besides, the “HIV-IIIB + 50% HS (Fold change in EC50)” value in the assay on HIV-IIIB + 50% HS was 14.
For “Ac-A[hCys]YAA[hCys]IEALIRAAQEQQEKNEAALR-NH2 (cysteine pairing not given here) [Peptide 77]” the same measures were 6 nM, 39, 304 and 3.
Take “Ac-A[hCys]YAA[hCys]IEALIRAAQEQQEKNEAALR-NH2 (cysteine pairing not given here) [Peptide 78]”: the EC50 in assay [1] was found to be 5 nM. Also, the “HIV-HXB2D V38A mutant (fold change in EC50)” value in assay [2] is listed as 61. The “HIV-HXB2D Q40H mutant (fold change in EC50)” value in assay [3] amounted to 355. Further, in the assay with HIV-IIIB + 50% HS, the “HIV-IIIB + 50% HS (Fold change in EC50)” value is listed as 3.
For “Ac-A[hCys]YAA[hCys]IEALIRKAQEQQEKNEAALR-NH2 (cysteine pairing not given here) [Peptide 79]” the same measures were 5 nM, 27, 284 and 2.
For “Suc-ACY-Abu-ACIEALIRAAQEQQEKNEAALR-NH2 [Peptide 49]”, the EC50 in assay [1] came out at 6 nM. Moreover, the “HIV-HXB2D V38A mutant (fold change in EC50)” value in assay [2] was 33. Moreover, the “HIV-IIIB + 50% HS (Fold change in EC50)” value in the assay with HIV-IIIB + 50% HS was 0.6.
In assay [1], “Suc-ANYLALIEALIRAAQEQQEKNEAALK(palmitoyl)-NH2 (Suc-ANYLALIEALIRAAQEQQEKNEAALK(Palmitoyl)-NH2; SMILES CCCCCCCCCCCCCCCC(=O)NCCCC[C@H](NC(=O)[C@H](CC(C)C)NC(=O)[C@H](C)NC(=O)[C@H](C)NC(=O)[C@H](CCC(=O)O)NC(=O)[C@H](CC(N)=O)NC(=O)[C@H](CCCCN)NC(=O)[C@H](CCC(=O)O)NC(=O)[C@H](CCC(N)=O)NC(=O)[C@H](CCC(N)=O)NC(=O)[C@H](CCC(=O)O)NC(=O)[C@H](CCC(N)=O)NC(=O)[C@H](C)NC(=O)[C@H](C)NC(=O)[C@H](CCCNC(=N)N)NC(=O)[C@@H](NC(=O)[C@H](CC(C)C)NC(=O)[C@H](C)NC(=O)[C@H](CCC(=O)O)NC(=O)[C@@H](NC(=O)[C@H](CC(C)C)NC(=O)[C@H](C)NC(=O)[C@H](CC(C)C)NC(=O)[C@H](Cc1ccc(O)cc1)NC(=O)[C@H](CC(N)=O)NC(=O)[C@H](C)NC(=O)CCC(=O)O)[C@@H](C)CC)[C@@H](C)CC)C(N)=O) [Peptide 13]” came in with an EC50 of 0.4 nM. Further, the “HIV-HXB2D Q40H mutant (fold change in EC50)” value in assay [3] is 9. In addition, in the assay with HIV-IIIB + 50% HS, the “HIV-IIIB + 50% HS (Fold change in EC50)” value stood at 9.
In assay [1], “Suc-ANYLALIEALIRAAQEQQEKNEAALR-NH2 (SMILES CC[C@H](C)[C@H](NC(=O)[C@H](CC(C)C)NC(=O)[C@H](C)NC(=O)[C@H](CCC(=O)O)NC(=O)[C@@H](NC(=O)[C@H](CC(C)C)NC(=O)[C@H](C)NC(=O)[C@H](CC(C)C)NC(=O)[C@H](Cc1ccc(O)cc1)NC(=O)[C@H](CC(N)=O)NC(=O)[C@H](C)NC(=O)CCC(=O)O)[C@@H](C)CC)C(=O)N[C@@H](CCCNC(=N)N)C(=O)N[C@@H](C)C(=O)N[C@@H](C)C(=O)N[C@@H](CCC(N)=O)C(=O)N[C@@H](CCC(=O)O)C(=O)N[C@@H](CCC(N)=O)C(=O)N[C@@H](CCC(N)=O)C(=O)N[C@@H](CCC(=O)O)C(=O)N[C@@H](CCCCN)C(=O)N[C@@H](CC(N)=O)C(=O)N[C@@H](CCC(=O)O)C(=O)N[C@@H](C)C(=O)N[C@@H](C)C(=O)N[C@@H](CC(C)C)C(=O)N[C@@H](CCCNC(=N)N)C(N)=O) [Peptide 7]” yielded an EC50 of 2 nM. Also, in assay [3], the “HIV-HXB2D Q40H mutant (fold change in EC50)” value is given as 764. In addition, the “HIV-IIIB + 50% HS (Fold change in EC50)” value in the assay with HIV-IIIB + 50% HS is reported as 0.6.
In the same order, the values of “Suc-ECYLRCIEELIRKAQEQQEKNEAALR-NH2 (cysteine pairing not given here) [Peptide 29]” are 0.8 nM, 98 and 0.6.
For “Suc-ENYLRLIEELIRKAQEQQEKNEAALR-NH2 (SMILES CC[C@H](C)[C@H](NC(=O)[C@H](CC(C)C)NC(=O)[C@H](CCC(=O)O)NC(=O)[C@H](CCC(=O)O)NC(=O)[C@@H](NC(=O)[C@H](CC(C)C)NC(=O)[C@H](CCCNC(=N)N)NC(=O)[C@H](CC(C)C)NC(=O)[C@H](Cc1ccc(O)cc1)NC(=O)[C@H](CC(N)=O)NC(=O)[C@H](CCC(=O)O)NC(=O)CCC(=O)O)[C@@H](C)CC)C(=O)N[C@@H](CCCNC(=N)N)C(=O)N[C@@H](CCCCN)C(=O)N[C@@H](C)C(=O)N[C@@H](CCC(N)=O)C(=O)N[C@@H](CCC(=O)O)C(=O)N[C@@H](CCC(N)=O)C(=O)N[C@@H](CCC(N)=O)C(=O)N[C@@H](CCC(=O)O)C(=O)N[C@@H](CCCCN)C(=O)N[C@@H](CC(N)=O)C(=O)N[C@@H](CCC(=O)O)C(=O)N[C@@H](C)C(=O)N[C@@H](C)C(=O)N[C@@H](CC(C)C)C(=O)N[C@@H](CCCNC(=N)N)C(N)=O) [Peptide 20]” the same measures were 0.7 nM, 80 and 1.

The term EC50 denotes the concentration giving half of the maximal effect. Read a low EC50 as an effect from little substance.
